“Also recorded” adds a separate entry of the source. Where two headings read alike, the source gives them in different places.
Legend:
Mps1 [1] = target: T1, Mps1 (Pyricularia oryzae, UniProt G4N374); test: biochemical; format: binding, Magnaporthe oryzae
M. oryzae [2] = test system: M. oryzae; design: species or system Magnaporthe oryzae; conditions: in vivo
M. oryzae [3] = test system: M. oryzae; design: species or system Magnaporthe oryzae; conditions: in vivo; remark: listed apart in the source
M. oryzae conidia [4] = format: cell-based, Magnaporthe oryzae
Mpk1 [5] = target: T2, Mpk1 (Fusarium oxysporum, UniProt X0BN28); test: biochemical; format: binding
M. oryzae [6] = format: cell-based
Mps1 [7] = target: T1, Mps1; format: biochemical, Magnaporthe oryzae
M. oryzae [8] = format: cell-based; remark: listed apart in the source
M. oryzae [9] = format: cell-based; remark: listed apart in the source
M. oryzae conidia [10] = format: cell-based, Magnaporthe oryzae; remark: listed apart in the source
Mpk1 [11] = target: T2, Mpk1; format: biochemical
Pmk1 = Pmk1 (Pyricularia oryzae, UniProt G4N0Z0); format: binding, Magnaporthe oryzae
M. oryzae conidia [12] = conditions: cited from earlier work
Itk = conditions: read-out: affinity; cited from earlier work
Src = conditions: read-out: affinity; cited from earlier work

T1 sequence (G4N374 whole entry, looked up): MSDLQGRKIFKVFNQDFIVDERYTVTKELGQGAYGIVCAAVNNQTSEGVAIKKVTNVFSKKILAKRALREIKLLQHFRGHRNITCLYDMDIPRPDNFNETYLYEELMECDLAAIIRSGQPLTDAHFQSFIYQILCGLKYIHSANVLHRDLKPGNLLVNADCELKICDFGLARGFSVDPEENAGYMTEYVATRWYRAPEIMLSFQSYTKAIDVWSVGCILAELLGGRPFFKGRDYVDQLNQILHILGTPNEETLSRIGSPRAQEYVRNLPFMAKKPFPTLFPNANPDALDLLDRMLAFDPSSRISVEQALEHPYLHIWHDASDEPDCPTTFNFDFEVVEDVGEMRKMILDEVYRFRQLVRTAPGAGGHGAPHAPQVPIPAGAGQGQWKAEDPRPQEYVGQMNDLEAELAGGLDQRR
Sequence of Pmk1 (G4N0Z0 whole entry, looked up): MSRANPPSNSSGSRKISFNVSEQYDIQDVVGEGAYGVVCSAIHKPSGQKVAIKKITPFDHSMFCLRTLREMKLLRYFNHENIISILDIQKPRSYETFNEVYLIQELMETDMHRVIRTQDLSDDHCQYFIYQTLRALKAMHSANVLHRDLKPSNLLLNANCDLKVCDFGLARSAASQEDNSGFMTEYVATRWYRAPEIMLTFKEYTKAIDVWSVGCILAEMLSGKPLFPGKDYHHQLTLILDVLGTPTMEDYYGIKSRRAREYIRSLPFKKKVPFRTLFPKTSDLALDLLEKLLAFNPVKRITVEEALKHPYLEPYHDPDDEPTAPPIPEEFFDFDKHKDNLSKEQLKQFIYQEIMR

## CNC(=O)[C@H](Cc1c[nH]c2ccccc12)NC(=O)c1ccc2cncc(-c3cc(OC(F)(F)F)ccc3OC)c2n1 [A378-0]
Mps1 [1]
  Kd: 69.2 µM
M. oryzae [2]
  virulence on barley leaves: exhibits inhibition of M. oryzae virulence on barley leaves
M. oryzae [3]
  concentration at which conidia were completely nonpathogenic: 150 µg/mL
  concentration from which inhibition of M. oryzae virulence is observed: 50 µg/mL
M. oryzae conidia [4]
  germination and appressorium formation of conidia: could not inhibit the germination and appressorium formation
Mpk1 [5]
  Kd: 70.3 µM
M. oryzae [6]
  sensitivity to lysing enzyme (cell wall integrity): readily reduced to spheroplasts
Mps1 [7]
  kinase activity of Mps1: suppressed the kinase activity of Mps1
M. oryzae [8]
  conidiation reduced to: about 40%
M. oryzae [9]
  autolysis on the culture dish: progressive autolysis was observed
M. oryzae conidia [10]
  appressorium penetration (penetration peg formation): did not form a penetration peg
Mpk1 [11]
  kinase activity of Mpk1: can inhibit the kinase activity of Mpk1
Pmk1
  binding to Pmk1: nonspecific binding

## CC(C)OC(=O)C(C(=O)OC(C)C)=C1SCCS1 [Isoprothiolane, diisopropyl 2-(1,3-dithiolan-2-ylidene)malonate]
M. oryzae conidia [12]
  concentration that can inhibit appressorium penetration: 20 µg/mL

## adenylyl imidodiphosphate [AMP-PNP]
Mps1 [1]
  binding to Mps1: does not interact with Mps1; also recorded: no binding was detected
Mps1 [1]; read-out: KD
  Kd: < 500 µM
Itk
  Kd: 7900 µM
Src
  Kd: 2540 µM
